19 molecules from US12344631B2, “C17 polar-substituted heteroaromatic synthetic triterpenoids and methods of use thereof” (REATA PHARMACEUTICALS, INC., priority 2019, dated 2025) can be followed below.

For assay [1], the system named is RAW 264.7 cells. Kind of assay: Nitric oxide suppression assay (IFNγ-induced NO production). It is filed as cell-based, mouse. To be noted: for IC50: Mus musculus, RAW264.7, RAW 264.7 cells, 2 h pretreatment, 20 ng/mL interferon gamma 24 h, nitrite by Griess, read-out: NO IC50 (nM) (Mean ± SD); for NO IC50 Relative to RTA 402 (fold) (Mean ± SD): average of ratios from replicate experiments, benchmark RTA 402. The method, then:
Tissue Culture. RAW 264.7, a mouse macrophage cell line, was obtained from American Type Culture Collection (Manassas VA) and maintained in the log phase of growth in Roswell Park Memorial Institute Medium 1640 (RPMI 1640) supplemented with 10% heat inactivated fetal bovine serum (FBS) and 1% penicillin-streptomycin. Cells were cultured and maintained in a humidified incubator at 37° C. under 5% CO2. Cells were sub-cultured every 3 days. […] All cell culture supplies were obtained from Life Technologies (Grand Island, NY) and VWR (Radnor, PA). Nitric Oxide Suppression Assay. RAW 264.7 cells were plated 1 day in advance of experimental treatments at a concentration of 30,000 cells per well onto Falcon-96 well clear bottom plates (Corning, NY) in a total volume of 200 μL per well using RPMI 1640 supplemented with 0.5% fetal bovine serum and 1% penicillin-streptomycin. The next day, cells were pretreated with compounds serially diluted from 1000× stocks. All compounds were dissolved in dimethyl sulfoxide (DMSO) at 10 mM stock solutions. Compounds were subsequently diluted in DMSO and RPMI 1640. Each well received a final concentration of 0.1% DMSO. Cells were pretreated for 2 hours and incubation at 37° C., followed by treatment with 20 ng/mL of interferon gamma (R&D Systems, Minneapolis, MN) per well for 24 hours. […] Afterwards, 50 μL of cell culture supernatant was transferred from each well into a new Falcon-96 well clear bottom plate. […] Afterwards, air bubbles were removed using ethanol vapor and absorbance was measured using a Spectramax M2e plate reader with a wavelength set to 525 nm. Viability was assessed using WST-1 cell proliferation reagent from Roche (Basel, Switzerland). After media was removed for the Nitric Oxide suppression assay, 15 μL of WST-1 reagent was added to each well of cells. Plates were briefly mixed on an orbital shaker and the cells were incubated at 37° C. for 30 minutes. Absorbance was measured using a Spectramax M2e plate reader with wavelengths set to 440 nm and 700 nm. For the ability of compounds to suppress the increase in nitric oxide release caused by interferon gamma, the absolute amount of nitrite that was produced in each well was extrapolated from the nitrite standards using a linear regression fit. All values were then normalized to the DMSO-interferon gamma treated wells and plotted as percent nitric oxide. IC50 values were calculated with a dependence on WST1 viability using Excel and/or GraphPad Prism (San Diego, CA).
Background: The Griess reaction detects nitrite, a stable product of nitric oxide.

The test system of assay [2] is AREc32 reporter cell line (antioxidant response element of rat Gsta2, Nrf2 target gene). Kind of assay: AREc32 luciferase reporter activation. It is filed as cell-based, human. The conditions noted are these: for EC (2-fold): human, Arec32, 19 h, concentration increasing luminescence signal 2-fold above vehicle, nineteen hours, read-out: AREc32 EC2X (nM) (Mean ± SD); for AREc32 EC2X Relative to RTA 402 (fold) (Mean ± SD): average of ratios from replicate experiments, benchmark RTA 402. The method, then:
[…] The effect of several compounds disclosed herein on luciferase reporter activation was assessed in the AREc32 reporter cell line (see Table 10 and Table 11). This cell line is derived from human breast carcinoma MCF-7 cells and is stably transfected with a luciferase reporter gene under the transcriptional control of eight copies of the antioxidant response element from the rat Gsta2 gene, an Nrf2 target gene ([…] et al., 1990). […] Twenty-four hours after plating, cells were treated with vehicle (DMSO) or test compounds at concentrations ranging from 0.03 to 1000 nM for nineteen hours. Media was removed and 100 μL of 1:1 mixture of the One-Glo Luciferase assay reagent and culture medium was added to each well. After incubation for 5 min at room temperature, the luminescence signal was measured on a PHERAstar plate reader. The EC2X value was determined using Excel and GraphPad Prism software. The fold increase in luminescence signal for cells treated with each concentration of compound relative to cells treated with vehicle was determined and a dose-response curve was generated. The dose-response curve was fit using nonlinear regression analysis and used to extrapolate the EC2X value.

Usually IC50 stands for the concentration at which inhibition is half-maximal.

As to `Cc1nnc([C@]23CCC(C)(C)C[C@H]2[C@H]2C(=O)C=C4[C@@]5(C)C=C(C#N)C(=O)[C@@H](C)[C@@H]5CC[C@@]4(C)[C@]2(C)CC3)o1` [CC4, reference compound], in assay [1], the IC50 was found to be 0.66 ± 0.06 nM and the “NO IC50 Relative to RTA 402 (fold) (Mean ± SD)” value was 0.51 ± 0.02 fold. For the same molecule, in assay [2], the EC (2-fold) is 8.12 ± 3.53 nM.

On to `CC(=O)OCCn1nnc([C@]23CCC(C)(C)C[C@H]2[C@H]2C(=O)C=C4[C@@]5(C)C=C(C#N)C(=O)C(C)(C)[C@@H]5CC[C@@]4(C)[C@]2(C)CC3)n1` [Compound T8], for which, in assay [1], the IC50 was 0.64 nM and the “NO IC50 Relative to RTA 402 (fold) (Mean ± SD)” value is 0.41 fold.

With `COCCn1nnc([C@]23CCC(C)(C)C[C@H]2[C@H]2C(=O)C=C4[C@@]5(C)C=C(C#N)C(=O)C(C)(C)[C@@H]5CC[C@@]4(C)[C@]2(C)CC3)n1` [Compound T9], in assay [1], the IC50 turned out to be 1.27 nM and the “NO IC50 Relative to RTA 402 (fold) (Mean ± SD)” value was 0.82 fold.

For `CC(=O)OCCc1noc([C@]23CCC(C)(C)C[C@H]2[C@H]2C(=O)C=C4[C@@]5(C)C=C(C#N)C(=O)C(C)(C)[C@@H]5CC[C@@]4(C)[C@]2(C)CC3)n1` [Compound T14], in assay [1], the IC50 worked out at 0.48 nM and the “NO IC50 Relative to RTA 402 (fold) (Mean ± SD)” value was 0.31 fold.

Take `COCCc1noc([C@]23CCC(C)(C)C[C@H]2[C@H]2C(=O)C=C4[C@@]5(C)C=C(C#N)C(=O)C(C)(C)[C@@H]5CC[C@@]4(C)[C@]2(C)CC3)n1` [Compound T15]: in assay [1], the IC50 stood at 0.6 ± 0.05 nM and the “NO IC50 Relative to RTA 402 (fold) (Mean ± SD)” value turned out to be 0.38 ± 0.04 fold.

As to `COC(=O)NCCc1noc([C@]23CCC(C)(C)C[C@H]2[C@H]2C(=O)C=C4[C@@]5(C)C=C(C#N)C(=O)C(C)(C)[C@@H]5CC[C@@]4(C)[C@]2(C)CC3)n1` [Compound T17], in assay [1], the IC50 is 0.75 nM and the “NO IC50 Relative to RTA 402 (fold) (Mean ± SD)” value is 0.48 fold.

With `CCNC(=O)NCCc1noc([C@]23CCC(C)(C)C[C@H]2[C@H]2C(=O)C=C4[C@@]5(C)C=C(C#N)C(=O)C(C)(C)[C@@H]5CC[C@@]4(C)[C@]2(C)CC3)n1` [Compound T18], in assay [1], the IC50 turned out to be 1.33 nM and the “NO IC50 Relative to RTA 402 (fold) (Mean ± SD)” value is reported as 0.86 fold.

For the molecule `CC(=O)NCCc1noc([C@]23CCC(C)(C)C[C@H]2[C@H]2C(=O)C=C4[C@@]5(C)C=C(C#N)C(=O)C(C)(C)[C@@H]5CC[C@@]4(C)[C@]2(C)CC3)n1` [Compound T19], in assay [1], the IC50 stood at 0.94 nM and the “NO IC50 Relative to RTA 402 (fold) (Mean ± SD)” value is given as 0.60 fold.

On to `CCCc1noc([C@]23CCC(C)(C)C[C@H]2[C@H]2C(=O)C=C4[C@@]5(C)C=C(C#N)C(=O)C(C)(C)[C@@H]5CC[C@@]4(C)[C@]2(C)CC3)n1` [Compound T26], for which, in assay [1], the IC50 amounted to 7.82 nM and the “NO IC50 Relative to RTA 402 (fold) (Mean ± SD)” value came to 4.83 fold.

In the case of `CC(C)c1noc([C@]23CCC(C)(C)C[C@H]2[C@H]2C(=O)C=C4[C@@]5(C)C=C(C#N)C(=O)C(C)(C)[C@@H]5CC[C@@]4(C)[C@]2(C)CC3)n1` [Compound T27], in assay [1], the IC50 is 6.03 nM and the “NO IC50 Relative to RTA 402 (fold) (Mean ± SD)” value was 3.72 fold.

Turning to `CC1(C)CC[C@]2(c3nc(C(C)(C)C)no3)CC[C@]3(C)[C@H](C(=O)C=C4[C@@]5(C)C=C(C#N)C(=O)C(C)(C)[C@@H]5CC[C@]43C)[C@@H]2C1` [Compound T28], in assay [1], the IC50 turned out to be 22.3 nM and the “NO IC50 Relative to RTA 402 (fold) (Mean ± SD)” value is 13.75 fold.

In the case of `CC1(C)CC[C@]2(c3nc(C4CC4)no3)CC[C@]3(C)[C@H](C(=O)C=C4[C@@]5(C)C=C(C#N)C(=O)C(C)(C)[C@@H]5CC[C@]43C)[C@@H]2C1` [Compound T29], in assay [1], the IC50 amounted to 4.03 nM and the “NO IC50 Relative to RTA 402 (fold) (Mean ± SD)” value stood at 2.49 fold. In assay [2], the “AREc32 EC2X Relative to RTA 402 (fold) (Mean ± SD)” value was 2.84 fold and the EC (2-fold) turned out to be 43.7 nM.

For `CC1(C)CC[C@]2(c3nc(CC4CC4)no3)CC[C@]3(C)[C@H](C(=O)C=C4[C@@]5(C)C=C(C#N)C(=O)C(C)(C)[C@@H]5CC[C@]43C)[C@@H]2C1` [Compound T30], in assay [1], the IC50 was found to be 4.82 nM and the “NO IC50 Relative to RTA 402 (fold) (Mean ± SD)” value amounted to 2.97 fold. Further, in assay [2], the “AREc32 EC2X Relative to RTA 402 (fold) (Mean ± SD)” value is recorded as 4.19 fold and the EC (2-fold) was found to be 64.5 nM.

In the case of `CC1(C)CC[C@]2(c3nc(C4CCC4)no3)CC[C@]3(C)[C@H](C(=O)C=C4[C@@]5(C)C=C(C#N)C(=O)C(C)(C)[C@@H]5CC[C@]43C)[C@@H]2C1` [Compound T31], in assay [1], the IC50 is 9.34 nM and the “NO IC50 Relative to RTA 402 (fold) (Mean ± SD)” value turned out to be 5.76 fold.

Regarding `CC1(C)CC[C@]2(c3nc(C4CCCC4)no3)CC[C@]3(C)[C@H](C(=O)C=C4[C@@]5(C)C=C(C#N)C(=O)C(C)(C)[C@@H]5CC[C@]43C)[C@@H]2C1` [Compound T32], in assay [1], the IC50 was determined as 20.8 nM and the “NO IC50 Relative to RTA 402 (fold) (Mean ± SD)” value amounted to 12.84 fold.

With `CC1(C)CC[C@]2(c3nc(C4CCCCC4)no3)CC[C@]3(C)[C@H](C(=O)C=C4[C@@]5(C)C=C(C#N)C(=O)C(C)(C)[C@@H]5CC[C@]43C)[C@@H]2C1` [Compound T33], in assay [1], the IC50 worked out at 25.6 nM and the “NO IC50 Relative to RTA 402 (fold) (Mean ± SD)” value amounted to 15.81 fold.

On to `C[C@@H]1C(=O)C(C#N)=C[C@]2(C)C3=CC(=O)[C@@H]4[C@@H]5CC(C)(C)CC[C@]5(c5nnc(CF)o5)CC[C@@]4(C)[C@]3(C)CC[C@@H]12` [Compound T38], for which, in assay [1], the IC50 was determined as 0.46 ± 0.02 nM and the “NO IC50 Relative to RTA 402 (fold) (Mean ± SD)” value turned out to be 0.20 ± 0.02 fold. Moreover, in assay [2], the “AREc32 EC2X Relative to RTA 402 (fold) (Mean ± SD)” value stood at 0.43 ± 0.14 fold and the EC (2-fold) was determined as 3.95 ± 1.12 nM.

Regarding `C[C@@H]1C(=O)C(C#N)=C[C@]2(C)C3=CC(=O)[C@@H]4[C@@H]5CC(C)(C)CC[C@]5(c5noc(CF)n5)CC[C@@]4(C)[C@]3(C)CC[C@@H]12` [Compound T39], in assay [1], the IC50 amounted to 1.98 nM and the “NO IC50 Relative to RTA 402 (fold) (Mean ± SD)” value amounted to 0.42 fold. Besides, in assay [2], the “AREc32 EC2X Relative to RTA 402 (fold) (Mean ± SD)” value came out at 0.20 fold and the EC (2-fold) turned out to be 1.88 nM.

Regarding `CC1(C)CC[C@]2(c3nc(CO)no3)CC[C@]3(C)[C@H](C(=O)C=C4[C@@]5(C)C=C(C#N)C(=O)C(C)(C)[C@@H]5CC[C@]43C)[C@@H]2C1` [Compound T42], in assay [1], the IC50 was found to be 0.44 nM and the “NO IC50 Relative to RTA 402 (fold) (Mean ± SD)” value is listed as 0.32 fold. Besides, in assay [2], the “AREc32 EC2X Relative to RTA 402 (fold) (Mean ± SD)” value was 0.26 fold and the EC (2-fold) turned out to be 2.58 nM.
